Values of other authors as cited in patent US20100183693A1 (priority 2005, published 2010).
Entries after “also recorded” stand apart in the source; their conditions may differ. Read-outs that look alike come from different tables or passages of the source.

SMILES | Effectiveness of Biocides (rank order) (pH 6.8) | Effectiveness of Biocides (rank order) (pH 8)
CC1(C)C(=O)N(Cl)C(=O)N1Br [BCDMH, bromo-chlorodimethyl hydantoin] | BCDMH < ozone; also recorded: ClO2 < HOCl + NaBr < BCDMH < Cl2 < | HOCl + NaBr < ClO2 < BCDMH < Cl2 <
[O][Cl+][O-] [ClO2, chlorine dioxide] | Cl2 < NaOCl < HOCl + NaBr < ClO2 <; also recorded: ClO2 < HOCl + NaBr < BCDMH < Cl2 < | HOCl + NaBr < ClO2 < BCDMH < Cl2 <
[Na+].[O-]Cl [NaOCl] | Cl2 < NaOCl < HOCl + NaBr < ClO2 <; also recorded: NaOCl < ozone | NaOCl < ozone
O=[O+][O-] [Sample O3, ozone] | BCDMH < ozone; also recorded: NaOCl < ozone | NaOCl < ozone
